In general, DC50 refers to the midpoint of the concentration-degradation curve. A word on the Emax: it is the maximal effect, on the per cent scale that the assay sets.

The record followed here is US12559492B2, “BRAF degraders” (C4 Therapeutics, Inc., priority 2020, dated 2026).

The assay deals with BRAF^V600E protein (Homo sapiens, UniProt P15056, V600E). Description: HiBiT cellular BRAF V600E degradation assay. The format is cell-based. To be noted: 24 h incubation; for DC50: A375.10 cells (HiBiT tag knocked in at N-terminal of BRAF V600E), concentration at which 50% of total cellular BRAF V600E is degraded; for Emax: A375.10 cells, Emax = amount of residual protein remaining in the cell after compound treatment, read-out: HiBit 24 h Emax. For orientation: HiBiT is a short tag that completes a luciferase, so light tracks the accessible tagged protein.
Sequence of BRAF^V600E protein (P15056 whole entry V600E): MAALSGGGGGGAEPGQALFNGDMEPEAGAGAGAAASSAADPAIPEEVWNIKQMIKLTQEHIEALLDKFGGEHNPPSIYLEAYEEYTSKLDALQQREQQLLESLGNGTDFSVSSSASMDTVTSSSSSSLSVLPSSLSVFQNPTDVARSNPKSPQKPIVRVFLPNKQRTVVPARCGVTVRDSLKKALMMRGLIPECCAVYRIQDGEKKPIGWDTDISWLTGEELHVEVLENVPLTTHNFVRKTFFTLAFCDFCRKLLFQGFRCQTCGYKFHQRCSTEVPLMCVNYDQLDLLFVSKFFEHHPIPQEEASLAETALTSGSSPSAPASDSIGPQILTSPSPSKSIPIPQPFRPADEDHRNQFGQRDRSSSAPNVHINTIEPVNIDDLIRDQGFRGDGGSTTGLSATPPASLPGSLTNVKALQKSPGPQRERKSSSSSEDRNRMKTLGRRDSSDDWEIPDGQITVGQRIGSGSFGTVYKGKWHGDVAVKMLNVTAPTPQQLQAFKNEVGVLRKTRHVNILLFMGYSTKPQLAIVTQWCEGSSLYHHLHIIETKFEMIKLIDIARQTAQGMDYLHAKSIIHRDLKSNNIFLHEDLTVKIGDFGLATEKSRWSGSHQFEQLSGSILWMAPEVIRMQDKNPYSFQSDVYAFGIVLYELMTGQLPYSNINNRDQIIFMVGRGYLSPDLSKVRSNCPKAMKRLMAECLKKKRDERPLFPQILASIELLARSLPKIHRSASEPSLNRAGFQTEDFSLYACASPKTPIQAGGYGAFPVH

`CCN(C)S(=O)(=O)Nc1cccc(C(=O)c2c[nH]c3ncc(-c4ccc(N5CCN(C(=O)CC6(O)CCN(c7ccc(NC8CCC(=O)NC8=O)cc7F)CC6)CC5)nc4)cc23)c1F` (stereo not shown) [Example 112, 5-[6-[4-[2-[1-[4-[(2,6-dioxo-3-piperidyl)amino]-2-fluoro-phenyl]-4-hydroxy-4-piperidyl]acetyl]piperazin-1-yl]-3-pyridyl]-3-[3-[[ethyl(methyl)sulfamoyl]amino]-2-fluoro-benzoyl]-1H-pyrrolo[2,3-b]pyridine]: the DC50 was determined as 0.00646 µM and the Emax came to 10.8%.

For the compound `O=C1CCC(Oc2ccc(C3CCN(C(=O)NC4CCN(Cc5ccc(-c6cnc7[nH]cc(C(=O)c8c(F)ccc(NS(=O)(=O)N9CCCC9)c8F)c7c6)cc5)CC4)CC3)cc2)C(=O)N1` (stereo not shown) [Example A27, N-[1-[[4-[3-[2,6-Difluoro-3-(pyrrolidin-1-ylsulfonylamino)benzoyl]-1H-pyrrolo[2,3-b]pyridin-5-yl]phenyl]methyl]piperidin-4-yl]-4-[4-(2,6-dioxopiperidin-3-yl)oxyphenyl]piperidine-1-carboxamide; formic acid], half-maximal degradation (DC50) was put at 0.104 µM and the Emax was 30%.
